≈ marks a conversion by molar mass, not a printed value. Read-outs that look alike come from different tables or passages of the source.
Legend:
[1] = tested on: Streptococcus pneumoniae Park I; assay: MIC, standard agar-dilution assay, S. pneumoniae Park I; assay type: cell-based; settings: Streptococcus pneumoniae
Protocol: (§1) The MIC's in Table II were determined by standard agar-dilution assays. The MIC's in Table III were obtained using conventional broth-dilution microtiter tests.

[2] = tested on: Streptococcus pyogenes C203; assay: MIC, standard agar-dilution assay, S. pyogenes C203; assay type: cell-based; settings: Streptococcus pyogenes, C203
Protocol: as §1

[3] = tested on: Streptococcus pyogenes C203; assay: Protection of mice experimentally infected with Streptococcus pyogenes C203; assay type: in vivo; settings: Streptococcus pyogenes, doses given 1 and 4 hours postinfection, read-out: ED50
Protocol: The formula 1 compounds have shown in vivo antimicrobial activity against experimentally-induced infections in laboratory animals. When two doses of test compound were administered to mice experimentally infected with Streptococcus pyogenes C203, the activity observed was measured as an ED50 value [effective dose in mg/kg to protect 50% of the test animals: see Warren Wick, et al., J. Bacteriol. 81, 233-235 (1961)].
^a mg/kg × 2; doses given 1 and 4 hours postinfection

[4] = tested on: Streptococcus Group D X66; assay: MIC, standard agar-dilution assay, Streptococcus Group D X66; assay type: cell-based
Protocol: as §1

[5] = tested on: Pseudomonas aeruginosa X239; assay: MIC, standard agar-dilution assay, P. aeruginosa X239; assay type: cell-based
Protocol: as §1

[6] = tested on: Staphylococcus aureus S13E; assay: MIC, standard agar-dilution assay, S. aureus S13E; assay type: cell-based
Protocol: as §1

[7] = tested on: Streptococcus Group D 2041; assay: MIC, standard agar-dilution assay, Streptococcus Group D 2041; assay type: cell-based; settings: GROUPD2041
Protocol: as §1

[8] = tested on: Staphylococcus epidermidis EPI1; assay: MIC, standard agar-dilution assay, S. epidermidis EPI1; assay type: cell-based
Protocol: as §1

[9] = tested on: Escherichia coli EC14; assay: MIC, standard agar-dilution assay, E. coli EC14; assay type: cell-based
Protocol: as §1

[10] = tested on: Staphylococcus aureus X400; assay: MIC, standard agar-dilution assay, S. aureus X400; assay type: cell-based
Protocol: as §1

[11] = tested on: Staphylococcus aureus V41; assay: MIC, standard agar-dilution assay, S. aureus V41; assay type: cell-based; settings: Staphylococcus aureus, V41
Protocol: as §1

[12] = tested on: Klebsiella pneumoniae X68; assay: MIC, standard agar-dilution assay, K. pneumoniae X68; assay type: cell-based
Protocol: as §1

[13] = tested on: Staphylococcus aureus X1.1; assay: MIC, standard agar-dilution assay, S. aureus X1.1; assay type: cell-based
Protocol: as §1

[14] = tested on: Staphylococcus epidermidis 222; assay: MIC, standard agar-dilution assay, S. epidermidis 222; assay type: cell-based
Protocol: as §1

[15] = tested on: Haemophilus influenzae C.L.; assay: MIC, standard agar-dilution assay, H. influenzae C.L.; assay type: cell-based
Protocol: as §1

[16] = tested on: Haemophilus influenzae 76; assay: MIC, standard agar-dilution assay, H. influenzae 76; assay type: cell-based
Protocol: as §1

[17] = agar-dilution, ampicillin-sensitive strain, read-out: MIC
[18] = agar-dilution, ampicillin-resistant strain, read-out: MIC

SMILES	MIC [1] [µg/mL]	MIC [2] [µg/mL]	ED50 ([3]; C203, oral) [mg/kg]	ED50 ([3]; C203, sc, subcutaneous) [mg/kg]	MIC [4] [µg/mL]	MIC ([5]; agar-dilution, read-out: MIC) [µg/mL]	MIC [6] [µg/mL]	MIC [7] [µg/mL]	MIC [8] [µg/mL]	MIC ([9]; agar-dilution, read-out: MIC) [µg/mL]	MIC [10] [µg/mL]	MIC [11] [µg/mL]	MIC ([12]; agar-dilution, read-out: MIC) [µg/mL]	MIC [13] [µg/mL]	MIC [14] [µg/mL]	MIC [15] [µg/mL]	MIC [16] [µg/mL]	MIC [15, 17] [µg/mL]	MIC [16, 18] [µg/mL]	also measured
CCC1OC(=O)CC(O)C(C)C(OC2OC(C)C(O)C(N(C)C)C2O)C(CCOc2ccccc2)CC(C)C(=O)C=CC(C)=CC1COC1OC(C)C(=O)C(OC)C1OC (stereo not drawn) [Compound 2, 4"-Oxo-20-DH-20-O-phenyl-desmycosin]	4 (≈ 4.72 µM)	2 (≈ 2.36 µM)	85.6	> 10	4 (≈ 4.72 µM)	> 128	0.5 (≈ 0.59 µM)	8 (≈ 9.43 µM)	1 (≈ 1.18 µM)	> 128	0.5 (≈ 0.59 µM)	0.5 (≈ 0.59 µM)	> 128	0.5 (≈ 0.59 µM)	0.25 (≈ 0.295 µM)	64 (≈ 75.5 µM)	64 (≈ 75.5 µM)			
CCC1OC(=O)CC(O)C(C)C(OC2OC(C)C(O)C(N(C)C)C2O)C(CCOc2ccccc2)CC(C)C(=O)C=CC(C)=CC1COC1OC(C)C(OS(=O)(=O)Cc2ccccc2)C(OC)C1OC (stereo not drawn) [Compound 17, 4"-O-Benzylsulfonyl-20-DH-20-O-phenyl-desmycosin]	2 (≈ 1.99 µM)	4 (≈ 3.98 µM)			32 (≈ 31.9 µM)		4 (≈ 3.98 µM)		4 (≈ 3.98 µM)		4 (≈ 3.98 µM)	4 (≈ 3.98 µM)		4 (≈ 3.98 µM)	2 (≈ 1.99 µM)	> 128	> 128			MIC [5]: > 128 µg/mL; MIC ([7]; agar-dilution, read-out: MIC): 128 µg/mL (≈ 127 µM); MIC [9]: > 128 µg/mL; MIC [12]: > 128 µg/mL
CCC1OC(=O)CC(O)C(C)C(OC2OC(C)C(O)C(N(C)C)C2O)C(CCOc2ccccc2)CC(C)C(=O)C=CC(C)=CC1COC1OC(C)CC(=O)C1OC (stereo not drawn) [Compound 52, 4"-Deoxy-3"-oxo-20-DH-20-O-phenyl-lactenocin]	2 (≈ 2.44 µM)	1 (≈ 1.22 µM)	79.4	10	2 (≈ 2.44 µM)	> 128	0.5 (≈ 0.611 µM)	2 (≈ 2.44 µM)	0.5 (≈ 0.611 µM)	> 128	0.5 (≈ 0.611 µM)	0.5 (≈ 0.611 µM)	> 128	0.5 (≈ 0.611 µM)	0.25 (≈ 0.306 µM)	64 (≈ 78.2 µM)	64 (≈ 78.2 µM)			
CCC1OC(=O)CC(O)C(C)C(OC2OC(C)C(O)C(N(C)C)C2O)C(CCOc2ccccc2)CC(C)C(=O)C=CC(C)=CC1COC1OC(C)C(N=[N+]=[N-])C(OC)C1OC (stereo not drawn) [Compound 25, 4"-Azido-4"-deoxy-20-DH-20-O-phenyl-desmycosin]	8 (≈ 9.14 µM)	8 (≈ 9.14 µM)	64	> 10		> 128	4 (≈ 4.57 µM)	64 (≈ 73.1 µM)	4 (≈ 4.57 µM)	> 128	4 (≈ 4.57 µM)	4 (≈ 4.57 µM)	> 128	4 (≈ 4.57 µM)	4 (≈ 4.57 µM)			> 128	> 128	MIC ([4]; agar-dilution, read-out: MIC): 16 µg/mL (≈ 18.3 µM)
CCC1OC(=O)CC(O)C(C)C(OC2OC(C)C(OC(C)=O)C(N(C)C)C2OC(C)=O)C(CCOc2ccccc2)CC(C)C(=O)C=CC(C)=CC1COC1OC(C)C(N)C(OC)C1OC (stereo not drawn) [Compound 20, 2',4'-Di-O-acetyl-4"-amino-4"-deoxy-20-DH-20-O-phenyldesmycosin]	1 (≈ 1.07 µM)	0.25 (≈ 0.268 µM)			4 (≈ 4.29 µM)	> 128	0.5 (≈ 0.536 µM)	8 (≈ 8.57 µM)	0.5 (≈ 0.536 µM)	> 128	0.5 (≈ 0.536 µM)	0.25 (≈ 0.268 µM)	> 128	0.25 (≈ 0.268 µM)	0.25 (≈ 0.268 µM)	16 (≈ 17.1 µM)	16 (≈ 17.1 µM)			
CCC1OC(=O)CC(O)C(C)C(OC2OC(C)C(O)C(N(C)C)C2O)C(CCOc2ccccc2)CC(C)C(=O)C=CC(C)=CC1COC1OC(C)/C(=N\OC)C(OC)C1OC (stereo not drawn) [Compound 6, 4"-O-Methoxyimino-20-DH-20-O-phenyl-desmycosin]	1 (≈ 1.14 µM)	4 (≈ 4.56 µM)			4 (≈ 4.56 µM)	> 128	2 (≈ 2.28 µM)	8 (≈ 9.12 µM)	2 (≈ 2.28 µM)	> 128	2 (≈ 2.28 µM)	2 (≈ 2.28 µM)	> 128	2 (≈ 2.28 µM)	2 (≈ 2.28 µM)			> 128	> 128	

Reference: patent US4920103A, “Modifications of mycinose and 3-O-demethylmycinose in tylosin-type macrolides” (Eli Lilly and Company, priority 1986, dated 1990)
